{
  "source": "ChEMBL document CHEMBL1201862",
  "about": "“PubChem BioAssay data set” (2004)",
  "key": {"[1]": {"assay": "inhibitors of SNCA 5'UTR-driven reporter translation, confirmation, H4 neuroglioma cells, luminescence (AID 1988)", "assay_type": "functional, cell-based"}, "[2]": {"assay": "cytotoxicity toward DRD oncogenic fibroblasts, dose response, cell-based, non-viral oncogenic, luminescence (AID 1934)", "assay_type": "functional", "details": "Homo sapiens"}, "[3]": {"system": "BJ", "assay": "cells", "assay_type": "functional, cell-based", "details": "Homo sapiens"}, "[4]": {"assay": "Luminescence Cell-Based Dose Response HTS to Identify Inhibitors of 5'UTR Stem-Loop Driven Prion Protein mRNA Translation in H4 Neuroglioblastoma Cells. [Related pubchem assays: 1827 (Project Summary), 1813 (Primary HTS)]", "assay_type": "functional"}, "[5]": {"system": "BJ", "assay": "cytotoxicity toward BJ-TERT fibroblasts, dose response, cell-based, RAS-independent, luminescence (AID 1933)", "assay_type": "functional", "details": "Homo sapiens"}, "[6]": {"system": "BJ", "assay": "cytotoxicity toward BJ-TERT-LT-ST fibroblasts, dose response, cell-based, RAS-independent, luminescence (AID 1935);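 note: BJ fibroblasts immortalized with TERT plus LT and ST oncogenes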", "assay_type": "functional", "details": "Homo sapiens"}, "[7]": {"assay": "inhibitors of firefly luciferase expression or activity, dose response, H4 neuroglioma cells, luminescence (AID 1990)", "assay_type": "functional, cell-based"}, "[8]": {"target": "T1, Calpain-2 catalytic subunit (Sus scrofa, UniProt P43367)", "T1 sequence (P43367 whole entry)": "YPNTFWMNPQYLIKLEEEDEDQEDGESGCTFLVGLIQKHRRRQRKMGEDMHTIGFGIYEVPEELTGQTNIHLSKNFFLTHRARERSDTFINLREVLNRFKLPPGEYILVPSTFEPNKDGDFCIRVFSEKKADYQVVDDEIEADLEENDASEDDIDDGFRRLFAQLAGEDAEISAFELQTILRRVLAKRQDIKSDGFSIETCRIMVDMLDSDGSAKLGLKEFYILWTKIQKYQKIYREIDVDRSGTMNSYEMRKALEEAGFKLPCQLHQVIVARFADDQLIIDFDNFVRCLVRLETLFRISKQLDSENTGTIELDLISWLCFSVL", "assay": "pig calpain II inhibitor potency, dose response, biochemical, fluorogenic peptide substrate (AID 1420)", "assay_type": "functional"}, "[9]": {"assay": "cells", "assay_type": "functional, cell-based"}, "[10]": {"assay": "cells", "assay_type": "functional, cell-based", "remark": "listed apart in the source"}, "[11]": {"assay": "Luminescence Cell-Based Dose Confirmation HTS to Identify Inhibitors of Platelet Dense Granule Release. [Related pubchem assays: 1663 (Primary HTS), 1678 (Summary of Project)]", "assay_type": "functional"}, "[12]": {"target": "Luciferin 4-monooxygenase (Photinus pyralis, UniProt P08659)", "sequence (P08659 whole entry)": "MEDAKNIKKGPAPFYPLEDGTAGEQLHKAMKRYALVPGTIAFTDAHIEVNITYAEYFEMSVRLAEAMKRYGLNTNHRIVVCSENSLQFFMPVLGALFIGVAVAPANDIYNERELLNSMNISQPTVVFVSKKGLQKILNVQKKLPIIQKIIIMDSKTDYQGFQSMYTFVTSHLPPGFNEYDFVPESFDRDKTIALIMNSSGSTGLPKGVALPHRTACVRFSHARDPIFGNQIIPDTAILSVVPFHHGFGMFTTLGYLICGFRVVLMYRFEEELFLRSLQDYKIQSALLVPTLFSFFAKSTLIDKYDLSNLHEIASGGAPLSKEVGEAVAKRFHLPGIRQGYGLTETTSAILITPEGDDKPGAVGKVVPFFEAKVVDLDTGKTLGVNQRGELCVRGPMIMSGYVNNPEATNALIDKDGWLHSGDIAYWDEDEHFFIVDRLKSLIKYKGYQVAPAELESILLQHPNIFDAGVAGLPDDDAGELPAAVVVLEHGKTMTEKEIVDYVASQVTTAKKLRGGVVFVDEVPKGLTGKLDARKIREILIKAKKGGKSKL", "assay": "firefly luciferase enzyme inhibitors, dose response, biochemical, luminescence (AID 1891)"}, "[13]": {"target": "T2, Ubiquitin-conjugating enzyme E2 N (Homo sapiens, UniProt P61088)", "T2 sequence (P61088 whole entry)": "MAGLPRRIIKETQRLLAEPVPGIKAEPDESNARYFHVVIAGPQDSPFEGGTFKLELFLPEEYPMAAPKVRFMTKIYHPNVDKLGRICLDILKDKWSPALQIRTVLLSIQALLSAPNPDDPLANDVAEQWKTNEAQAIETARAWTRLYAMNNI", "assay_type": "functional"}, "[14]": {"assay": "inhibitors of intracellular T. cruzi replication, confirmation, NIH3T3 host cells, beta-gal luminescence (AID 2044);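 note: luminescent beta-galactosidase reporter signal from transgenic T. cruzi replicating inside host cells; inhibitors lower the luminescence signal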", "assay_type": "functional, cell-based"}, "[15]": {"assay": "cytotoxicity toward NIH3T3 fibroblasts, dose response, counter-screen, cell-based, ATP luminescence, mouse fibroblasts (AID 2010);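 note: cells exposed to compound for about 90 hours before reading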", "assay_type": "functional"}, "[16]": {"assay": "growth suppression of PTEN-null colon cells, dose response, cell-based, HCT116 PTEN knockout (AID 1047);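 note: HCT116 colon tumor cells with PTEN knocked out; cells exposed to compound for 60 hours before readout; potency for loss of cell viability measured by luminescence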", "assay_type": "functional"}, "[17]": {"assay": "growth suppression of beta-catenin-knockout colon cells, dose response, cell-based, HCT116, human colon tumor (AID 1045);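 note: HCT116 colon tumor cells with beta catenin knocked out; cells exposed to compound for 60 hours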", "assay_type": "functional"}, "[18]": {"target": "T3, Fatty acid synthase (Homo sapiens, UniProt P49327)", "T3 sequence (P49327 whole entry, the tested form may be a part)": "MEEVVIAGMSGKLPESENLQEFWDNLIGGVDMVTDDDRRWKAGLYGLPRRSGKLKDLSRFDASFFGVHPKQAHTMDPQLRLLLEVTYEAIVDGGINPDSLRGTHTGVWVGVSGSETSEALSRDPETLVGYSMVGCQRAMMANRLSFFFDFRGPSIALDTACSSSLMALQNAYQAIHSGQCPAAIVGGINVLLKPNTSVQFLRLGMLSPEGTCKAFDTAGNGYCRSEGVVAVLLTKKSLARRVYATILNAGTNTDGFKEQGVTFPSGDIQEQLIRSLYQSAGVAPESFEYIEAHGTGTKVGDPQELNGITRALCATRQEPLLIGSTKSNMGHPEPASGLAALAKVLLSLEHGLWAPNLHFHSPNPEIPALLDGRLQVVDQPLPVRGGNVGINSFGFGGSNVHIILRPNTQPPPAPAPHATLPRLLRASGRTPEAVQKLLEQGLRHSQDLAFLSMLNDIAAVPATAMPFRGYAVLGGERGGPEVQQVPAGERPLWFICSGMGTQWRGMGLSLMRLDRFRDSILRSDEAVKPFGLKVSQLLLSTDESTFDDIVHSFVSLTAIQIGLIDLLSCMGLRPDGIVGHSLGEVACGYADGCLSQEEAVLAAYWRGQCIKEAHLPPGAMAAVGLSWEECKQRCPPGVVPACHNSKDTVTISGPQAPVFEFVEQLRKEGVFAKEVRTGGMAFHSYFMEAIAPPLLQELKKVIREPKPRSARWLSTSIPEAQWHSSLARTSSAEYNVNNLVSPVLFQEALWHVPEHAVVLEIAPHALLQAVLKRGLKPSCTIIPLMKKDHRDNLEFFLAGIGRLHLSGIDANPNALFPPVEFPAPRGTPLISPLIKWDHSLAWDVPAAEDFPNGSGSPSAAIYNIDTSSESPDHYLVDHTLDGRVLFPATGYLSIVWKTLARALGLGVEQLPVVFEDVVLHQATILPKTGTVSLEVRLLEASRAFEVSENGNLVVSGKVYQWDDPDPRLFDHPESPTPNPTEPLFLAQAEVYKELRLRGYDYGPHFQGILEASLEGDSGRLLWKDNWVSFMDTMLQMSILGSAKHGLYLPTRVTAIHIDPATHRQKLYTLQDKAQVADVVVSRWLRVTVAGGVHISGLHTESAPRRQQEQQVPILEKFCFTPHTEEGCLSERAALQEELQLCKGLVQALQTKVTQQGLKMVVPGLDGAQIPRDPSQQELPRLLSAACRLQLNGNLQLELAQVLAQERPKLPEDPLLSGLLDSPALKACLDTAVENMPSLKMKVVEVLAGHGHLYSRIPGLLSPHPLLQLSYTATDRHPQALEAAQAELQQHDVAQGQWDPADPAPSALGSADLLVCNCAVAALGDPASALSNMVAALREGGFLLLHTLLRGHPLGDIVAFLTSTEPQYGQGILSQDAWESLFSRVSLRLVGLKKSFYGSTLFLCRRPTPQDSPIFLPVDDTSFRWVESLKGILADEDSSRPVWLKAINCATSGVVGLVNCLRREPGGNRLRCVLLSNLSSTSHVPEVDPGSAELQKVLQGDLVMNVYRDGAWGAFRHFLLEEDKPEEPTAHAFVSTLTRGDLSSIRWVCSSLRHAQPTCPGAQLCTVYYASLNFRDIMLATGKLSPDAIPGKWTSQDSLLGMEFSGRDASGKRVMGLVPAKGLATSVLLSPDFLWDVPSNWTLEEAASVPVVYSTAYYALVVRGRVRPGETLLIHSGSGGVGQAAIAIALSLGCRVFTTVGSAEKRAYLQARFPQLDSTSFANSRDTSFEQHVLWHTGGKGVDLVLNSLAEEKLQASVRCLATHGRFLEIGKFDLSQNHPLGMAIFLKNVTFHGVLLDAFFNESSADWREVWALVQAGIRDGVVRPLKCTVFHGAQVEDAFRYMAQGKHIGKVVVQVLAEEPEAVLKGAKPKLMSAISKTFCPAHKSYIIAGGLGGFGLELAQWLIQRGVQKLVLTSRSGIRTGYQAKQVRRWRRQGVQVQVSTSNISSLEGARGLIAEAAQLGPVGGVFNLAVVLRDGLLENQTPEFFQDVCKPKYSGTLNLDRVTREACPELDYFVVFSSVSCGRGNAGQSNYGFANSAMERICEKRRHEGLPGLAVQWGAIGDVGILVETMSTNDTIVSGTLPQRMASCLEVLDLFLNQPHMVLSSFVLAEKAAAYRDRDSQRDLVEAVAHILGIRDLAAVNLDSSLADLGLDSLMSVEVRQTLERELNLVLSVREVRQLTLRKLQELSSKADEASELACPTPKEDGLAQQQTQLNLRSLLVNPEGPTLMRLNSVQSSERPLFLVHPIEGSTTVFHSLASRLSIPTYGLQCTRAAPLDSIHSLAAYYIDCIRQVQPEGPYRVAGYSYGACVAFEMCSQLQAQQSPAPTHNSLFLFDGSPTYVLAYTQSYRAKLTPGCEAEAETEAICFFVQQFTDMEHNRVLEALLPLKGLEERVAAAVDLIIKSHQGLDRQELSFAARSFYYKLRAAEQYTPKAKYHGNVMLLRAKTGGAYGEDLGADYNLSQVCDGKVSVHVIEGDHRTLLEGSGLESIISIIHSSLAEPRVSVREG", "assay": "FAS thioesterase domain inhibitors, dose response, biochemical, endpoint fluorescence intensity, uHTS hits (AID 624327);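 note: fluorescence from hydrolysis of an O-methyl fluorescein acyl ester substrate by the enzyme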", "assay_type": "functional"}, "[19]": {"target": "T3, Fatty acid synthase", "assay": "FAS thioesterase domain inhibitors, dose response, biochemical, kinetic fluorescence intensity (AID 624326);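 note: rate of fluorescence rise from hydrolysis of a fluorogenic O-methyl fluorescein ester substrate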", "assay_type": "functional"}, "[20]": {"assay": "A cytotoxicity screen of small molecule inhibitors of the PhoP region in Salmonella typhi identified in the primary screen. [Related pubchem assays: 1850, 1864, 1985 ]", "assay_type": "functional"}, "[21]": {"system": "INS1", "assay": "beta cell apoptosis inhibitors, cytokine rescue, dose response, luminescence, retest (AID 449756);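 note: cell death triggered by IL-1 beta plus TNF-alpha plus IFN-gamma mixture; protective hits raise ATP signal compared with cytokine alone wells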", "assay_type": "functional, cell-based", "details": "Rattus norvegicus"}, "[22]": {"target": "T4, Leucine aminopeptidase (Plasmodium falciparum 3D7, UniProt Q8IL11)", "T4 sequence (Q8IL11 whole entry)": "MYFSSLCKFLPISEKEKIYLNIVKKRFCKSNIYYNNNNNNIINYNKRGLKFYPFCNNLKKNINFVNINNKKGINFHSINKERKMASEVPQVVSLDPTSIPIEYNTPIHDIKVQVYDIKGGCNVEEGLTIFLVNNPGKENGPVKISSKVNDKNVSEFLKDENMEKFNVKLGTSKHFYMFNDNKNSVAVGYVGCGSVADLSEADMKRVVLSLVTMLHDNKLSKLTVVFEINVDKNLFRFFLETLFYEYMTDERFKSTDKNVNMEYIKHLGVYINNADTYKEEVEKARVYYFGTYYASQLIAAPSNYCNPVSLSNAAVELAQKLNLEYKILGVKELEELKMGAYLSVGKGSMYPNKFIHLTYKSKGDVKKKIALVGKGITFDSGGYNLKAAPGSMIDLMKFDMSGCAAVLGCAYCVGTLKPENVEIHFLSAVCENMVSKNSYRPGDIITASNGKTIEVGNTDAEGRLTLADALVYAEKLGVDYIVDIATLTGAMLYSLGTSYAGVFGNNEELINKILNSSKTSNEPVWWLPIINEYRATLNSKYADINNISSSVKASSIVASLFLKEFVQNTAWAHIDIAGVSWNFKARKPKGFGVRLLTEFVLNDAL", "assay": "P. falciparum M17LAP inhibitors, primary screen, biochemical, fluorogenic H-Leu-NHMec substrate, 1536-well (AID 1619)", "assay_type": "functional"}, "[23]": {"target": "T5, Heat shock factor protein 1 (Mus musculus, UniProt P38532)", "T5 sequence (P38532 whole entry)": "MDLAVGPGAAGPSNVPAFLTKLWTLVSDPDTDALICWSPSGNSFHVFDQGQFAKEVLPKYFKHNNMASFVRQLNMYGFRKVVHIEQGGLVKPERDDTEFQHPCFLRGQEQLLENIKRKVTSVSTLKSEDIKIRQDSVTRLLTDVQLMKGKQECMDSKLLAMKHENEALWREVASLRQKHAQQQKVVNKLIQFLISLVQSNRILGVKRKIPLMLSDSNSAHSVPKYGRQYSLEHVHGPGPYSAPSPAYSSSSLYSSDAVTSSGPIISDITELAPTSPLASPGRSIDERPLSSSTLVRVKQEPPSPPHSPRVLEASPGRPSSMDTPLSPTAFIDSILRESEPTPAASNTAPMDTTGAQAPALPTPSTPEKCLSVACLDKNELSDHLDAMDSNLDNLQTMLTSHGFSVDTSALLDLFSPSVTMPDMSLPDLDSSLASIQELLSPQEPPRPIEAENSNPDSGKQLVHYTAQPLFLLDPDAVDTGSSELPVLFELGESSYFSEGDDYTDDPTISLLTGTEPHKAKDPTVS", "assay": "HSF1 potentiators in luciferase reporter cells, confirmation, cell-based, NIH3T3, luminescence, dose retest (AID 435004);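 note: stress induced by proteasome inhibitor MG132 added 30 min after compound; actives raise luminescence as potentiators of the MG132 stress response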", "assay_type": "functional"}},
  "note": "Calls of active or inactive are those of the source. Cut-off read from the data, not from the text of the source, for most assays here: actives have a measured EC50 and inactives only a lower limit.",
  "data": [
    {"smiles": "CCN(CC(=O)NCc1ccc(F)cc1)C(=O)/C=C/c1ccc(OC)c(S(=O)(=O)NC(C)C)c1", "values": [
      {"measurement": "EC50", "setting": "[1]", "value": "9.81 µM (active)"},
      {"measurement": "EC50", "setting": "[2]", "value": "13.7 µM (inconclusive)"},
      {"measurement": "EC50", "setting": "[3]", "value": "13.4 µM (active)"},
      {"measurement": "EC50", "setting": "[4]", "value": "> 120 µM (not active)"},
      {"measurement": "EC50", "setting": "[5]", "value": "9.24 µM (inconclusive)"},
      {"measurement": "EC50", "setting": "[6]", "value": "4.34 µM (inconclusive)"},
      {"measurement": "EC50", "setting": "[7]", "value": "> 120 µM (not active)"}
    ]},
    {"smiles": "O=C(Oc1ccc2c(c1)OCO2)C12CC3CC(CC(C3)C1)C2", "values": [
      {"measurement": "IC50", "setting": "[8]", "value": "5.49 µM (not active)"}
    ]},
    {"smiles": "CN(C)c1ccc(CNC(=O)CCS(=O)(=O)c2ccc3c(c2)oc(=O)n3C)cc1", "values": [
      {"measurement": "EC50", "setting": "[9]", "value": "> 350 µM (not active)"},
      {"measurement": "EC50", "setting": "[10]", "value": "> 350 µM (not active)"}
    ]},
    {"smiles": "COc1ccc(-c2nc(C[S+]([O-])CC(=O)NCCc3ccc(C)cc3)c(C)o2)cc1OC", "note": "(centres undefined)", "values": [
      {"measurement": "EC50", "setting": "[11]", "value": "> 112 µM (not active)"},
      {"measurement": "EC50", "setting": "[12]", "value": "> 112 µM (not active)"}
    ]},
    {"smiles": "CCc1ccc(OCC(O)CN2CCC(CN3C(=O)c4cccc5cccc(c45)C3=O)CC2)cc1", "note": "(centres undefined)", "values": [
      {"measurement": "IC50", "setting": "[13]", "value": "> 20 µM (inactive)"},
      {"measurement": "EC50", "setting": "[14]", "value": "1.84 µM (active)"},
      {"measurement": "EC50", "setting": "[15]", "value": "> 60 µM (not active)"},
      {"measurement": "EC50", "setting": "[16]", "value": "6.53 µM (active)"},
      {"measurement": "EC50", "setting": "[17]", "value": "5.43 µM (active)"}
    ]},
    {"smiles": "O=C(CN(Cc1ccc(F)cc1)C(=O)CCC(=O)Nc1nccs1)NCC1CCCO1", "note": "(centres undefined)", "values": [
      {"measurement": "EC50", "setting": "[9]", "value": "35.3 µM (active)"},
      {"measurement": "EC50", "setting": "[10]", "value": "> 350 µM (not active)"}
    ]},
    {"smiles": "CC(C(=O)NCCC1=CCCCC1)c1ccc([N+](=O)[O-])cc1", "note": "(centres undefined)", "values": [
      {"measurement": "IC50", "setting": "[18]", "value": "5.76 µM (active)"},
      {"measurement": "IC50", "setting": "[19]", "value": "5.99 µM (active)"}
    ]},
    {"smiles": "S=C(Nc1ccccc1Cl)N(Cc1ccccc1)Cc1ccccn1", "values": [
      {"measurement": "EC50", "setting": "[20]", "value": "> 50 µM (active)"}
    ]},
    {"smiles": "c1ccc(CN2CCC(N3CCN(Cc4ccc5c(c4)OCO5)CC3)CC2)cc1", "values": [
      {"measurement": "EC50", "setting": "[20]", "value": "> 50 µM (active)"}
    ]},
    {"smiles": "COc1ccc([N+](=O)[O-])cc1NC(=O)C(C)OC(=O)/C=C/c1ccco1", "note": "(centres undefined)", "values": [
      {"measurement": "IC50", "setting": "[18]", "value": "3.26 µM (active)"},
      {"measurement": "IC50", "setting": "[19]", "value": "6.45 µM (active)"}
    ]},
    {"smiles": "CCOC(=O)c1c(NC(=O)c2cc(-c3ccc(Cl)s3)nc3ccccc23)sc(C(N)=O)c1C", "values": [
      {"measurement": "AC50", "setting": "[21]", "value": "7.98 µM (active)"},
      {"measurement": "EC50", "setting": "[16]", "value": "5.74 µM (active)"},
      {"measurement": "EC50", "setting": "[17]", "value": "7.35 µM (active)"}
    ]},
    {"smiles": "Cc1cc(OCC(=O)Nc2ccc3c(c2)OCCO3)cc(C)c1Cl", "values": [
      {"measurement": "EC50", "setting": "[9]", "value": "> 350 µM (not active)"},
      {"measurement": "EC50", "setting": "[10]", "value": "> 350 µM (not active)"}
    ]},
    {"smiles": "O=C(O)CC12C[C@H]3C[C@@H](C1)CC(n1ncc(N4CCN(c5ccccc5)CC4)c(Cl)c1=O)(C3)C2", "values": [
      {"measurement": "IC50", "setting": "[22]", "value": "152 µM (active)"},
      {"measurement": "EC50", "setting": "[23]", "value": "> 260 µM (inactive)"}
    ]},
    {"smiles": "CCCCNC(=O)CCC(=O)Nc1ccc2nc(N3CCC(C)CC3)cc(C)c2c1", "values": [
      {"measurement": "EC50", "setting": "[20]", "value": "> 50 µM (active)"}
    ]},
    {"smiles": "O=C(CN1C(=O)CCSc2ccccc21)Nc1ccc2c(c1)OCCO2", "values": [
      {"measurement": "IC50", "setting": "[22]", "value": "16.1 µM (active)"}
    ]}
  ]
}
